Measurements as given in patent publication US20210403567A1, “METHODS OF TREATING CERVICAL CANCER BY ADMINISTERING A PD-1 INHIBITOR” (priority 2020, published 2021).
“And” between values parts separate entries of the source, which are not always exact repeats. Identical values can stand only once.

Columns and labels:
[1] = system: recurrent or metastatic cervical cancer; assay: Phase I expansion cohorts: cemiplimab 3 mg/kg IV Q2W alone or plus hfRT, tumor response (RECIST 1.1), PFS, OS; assay type: in vivo, human
Description: The combination therapy cohort enrolled patients for whom palliative hfRT was planned to a lesion that was causing some signs or symptoms. The radiated lesion was not followed as a target lesion for response assessments.
Additional eligibility criteria included an Eastern Cooperative Oncology Group performance status score of 0 or 1, and adequate organ function. Patients were required to have at least one measurable lesion per Response Evaluation Criteria in Solid Tumors (RECIST) version 1.1. (Eisenhauer et al., Eur J Cancer 45 (2009) 228-47). In the combination therapy cohort, the measureable lesion(s) were in addition to the irradiated lesion.
Assessments: Tumor histology was assessed per local pathology reports of tumor samples obtained at any time prior to study enrollment. […] Extensive safety evaluations were performed during screening and on Day 1 of each subsequent treatment cycle throughout the study. Routine safety evaluations were performed at each cemiplimab dosing visit. Tumor response assessments were performed by investigators, per RECIST 1.1, at the end of each 8-week treatment cycle. In combination therapy cohorts, the lesions selected for hfRT were not included in RECIST 1.1 assessments.
Statistical analysis of clinical data: The safety summaries and analyses were performed on the safety analysis set. Data were summarized using descriptive statistics, along with two-sided 95% confidence interval (CI), by dose cohort. Continuous variables were summarized with mean, median, standard deviation, minimum, and maximum. Categorical variables were summarized with frequency and percentage. Kaplan-Meier analysis was performed for progression-free survival (PFS) and OS.

[2] = system: recurrent or metastatic cervical cancer that has progressed after platinum-containing chemotherapy; assay: Phase 3 trial, cemiplimab 350 mg IV Q3W versus investigator's choice (IC) chemotherapy: OS, PFS, ORR, DOR; details: for OS Hazard Ratio (95% CI): AC (non-SCC); for OS Hazard Ratio (95% CI) / OS subgroup analysis, Hazard Ratio (95% CI) / PFS HR (95% CI): cemiplimab vs chemotherapy; for Median OS (95% CI) / Median PFS (95% CI): Kaplan-Meier; for PFS Hazard Ratio (95% CI): cemiplimab vs chemo;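 for all read-outs here: randomized trial arms, OS counted from randomization until death with censoring at last contact, PFS until first RECIST 1.1 progression or death from any cause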
[3] = investigator assessment, n = 10 per cohort
[4] = AC, cemiplimab N=65, chemo N=66
[5] = Example 3 analysis, total population
[6] = Example 4 updated, AC, listed as cemiplimab

cemiplimab
objective response rate among cervical cancer patients enrolled in the phase I study ([1]; 4/23 combined: dose escalation plus expansion cohorts): 17%
responding patients in expansion cohorts ([1]; both expansion cohorts combined): 2/20
NE (not evaluable), n (%) ([1]; includes missing and unknown tumor response, n = 10 per cohort): 1 n (%)
ORR, % (95% CI) ([1]; investigator assessment, RECIST 1.1, n = 10 per cohort): 10.0%
Partial response, n (%) [1, 3]: 1 n (%)
Progressive disease, n (%) [1, 3]: 5 n (%)
Stable disease, n (%) [1, 3]: 3 n (%)
Kaplan-Meier estimation of median OS ([1]; n = 10 per cohort): 10.3 months
Kaplan-Meier estimation of median PFS ([1]; n = 10 per cohort): 1.9 months
patients with best response of stable disease ([1]; n = 10 per cohort): 30%
Disease control rate, % (95% CI) ([1]; objective response or stable disease, n = 10 per cohort): 40.0%
patients with partial response ([1]; one patient in each cohort of 10): 10%
DOR (duration of response) ([1]; one responder in each group): 11.2 months
Observed time to response ([1]; one responder in each group): 1.8 months
Durable disease control rate, % (95% CI) ([1]; without progression for at least 16 weeks (105 days), n = 10 per cohort): 20.0%
ORR ([2]; AC): 12.3% and 12%
OS Hazard Ratio (95% CI) [2]: 0.556 (0.363, 0.853) and 0.56 (0.36-0.85)
OS Hazard Ratio (95% CI) ([2]; listed as cemiplimab): 0.56
Estimated Event-Free Probability (PFS), % (95% CI) ([2]; AC, 6 months): 30.1 (19.3, 41.6) %
Estimated Survival Probability, % (95% CI) ([2]; AC, 6 months): 69.6 (56.5, 79.4) %
Estimated Event-Free Probability (PFS), % (95% CI) ([2]; AC, 12 months): 10.6 (4.4, 20.0) %
Estimated Survival Probability, % (95% CI) ([2]; AC, 12 months): 57.4 (43.9, 68.7) %
Estimated Event-Free Probability (PFS), % (95% CI) ([2]; AC, 18 months): 8.5 (3.0, 17.6) %
Estimated Survival Probability, % (95% CI) ([2]; AC, 18 months): 34.2 (21.5, 47.3) %
Estimated Event-Free Probability (PFS), % (95% CI) ([2]; AC, 24 months): 8.5 (3.0, 17.6) %
Estimated Survival Probability, % (95% CI) ([2]; AC, 24 months): 19.5 (8.4, 34.1) %
Median OS (95% CI) ([2]; AC): 13.3 (9.6, 17.6) months
Median OS (95% CI) ([2]; AC, listed as cemiplimab): 13.3 months
Best Overall Tumor Response: Complete Response (CR) [2, 4]: 3 (4.6%) n (%)
Best Overall Tumor Response: Not Evaluable (NE) [2, 4]: 6 (9.2%) n (%)
Best Overall Tumor Response: Partial Response (PR) [2, 4]: 5 (7.7%) n (%)
Best Overall Tumor Response: Progressive Disease (PD) [2, 4]: 19 (29.2%) n (%)
OS: Number of censored patients [2, 4]: 24 (36.9%) n (%)
Objective Response Rate (ORR: CR + PR) [2, 4]: 8 (12.3%) n (%)
Reduced risk of death (vs. chemotherapy) ([2]; AC, post-hoc): 44%
Reduced risk of death (vs. chemotherapy) ([2]; AC, post-hoc, listed as cemiplimab): 44%
OS subgroup analysis, Hazard Ratio (95% CI) ([2]; ECOG status per IWRS: 0): 0.59 (0.43-0.82)
OS subgroup analysis, Hazard Ratio (95% CI) ([2]; ECOG status per IWRS: 1): 0.74 (0.57-0.96)
PFS: Number of events ([2]; Example 3 analysis, Adeno, cemiplimab N=65, chemo N=66): 55 (84.6%) n (%)
PFS Hazard Ratio (95% CI) ([2]; Example 3 analysis, Adeno): 0.849 (0.574, 1.255)
Median PFS in month (95% CI) ([2]; Example 3 analysis, SCC): 2.8 (2.6, 4.0) month
PFS: Number of censored patients ([2]; Example 3 analysis, SCC): 53 (22.2%) n (%)
PFS: Number of deaths ([2]; Example 3 analysis, SCC): 25 (10.5%) n (%)
PFS: Progressive Disease ([2]; Example 3 analysis, SCC): 161 (67.4%) n (%)
Reduced risk of progression (vs. chemotherapy) ([2]; Example 3 analysis, SCC): 31%
PFS Hazard Ratio (95% CI) ([2]; Example 3 analysis, SCC): 0.686 (0.559, 0.843)
Median PFS in month (95% CI) [2, 5]: 2.8 (2.6, 3.9) month
PFS: Number of censored patients [2, 5]: 63 (20.7%) n (%)
PFS: Number of deaths [2, 5]: 31 (10.2%) n (%)
PFS: Progressive Disease [2, 5]: 210 (69.1%) n (%)
Reduced risk of progression (vs. chemotherapy) [2, 5]: 28%
PFS: Number of events ([2]; Example 3 analysis, total population, N=304 per arm): 241 (79.3%) n (%)
PFS Hazard Ratio (95% CI) [2, 5]: 0.719 (0.599, 0.862)
PFS: Number of censored patients ([2]; Example 4 updated, AC): 9 (13.8%) n (%)
PFS: Number of deaths ([2]; Example 4 updated, AC): 7 (10.8%) n (%)
PFS: Progressive Disease ([2]; Example 4 updated, AC): 49 (75.4%) n (%)
reduction in the risk of disease progression ([2]; Example 4 updated, AC, post-hoc, vs chemotherapy): 9%
Median PFS (95% CI) ([2]; Example 4 updated, AC): 2.7 (2.3, 4.0) months
Median PFS (95% CI) [2, 6]: 2.7 months
PFS: Number of events ([2]; Example 4 updated, AC, cemiplimab N=65, chemo N=66): 56 (86.2%) n (%)
PFS HR (95% CI) ([2]; Example 4 updated, AC): 0.912 (0.623, 1.335)
PFS HR (95% CI) [2, 6]: 0.91
PFS: Number of censored patients ([2]; Example 4 updated, SCC): 42 (17.6%) n (%)
PFS: Number of deaths ([2]; Example 4 updated, SCC): 34 (14.2%) n (%)
PFS: Progressive Disease ([2]; Example 4 updated, SCC): 163 (68.2%) n (%)
Median PFS (95% CI) ([2]; Example 4 updated, SCC): 2.8 (2.6, 4.0) months
